Each structure is given as a SMILES string. Some results are limits rather than exact numbers.

In the first test the test system is Aβ production in 293 751 SWE and CHO 751 SWE cells (transfected with APP-751 Swedish mutation). The test can be described thus: Aβ production inhibition activity in cells (Aβ ELISA of conditioned media, normalized for cytotoxicity by MTT). Format: cell-based. The note with it: 5 μg/ml. The procedure:
Two cell lines (human kidney cell line 293 and Chinese hamster ovary cell line CHO) were stably transfected with the gene for APP-751 containing the double mutation Lys651 -Met652 to Asn651 -Leu652 (APP-751 numbering) commonly called the Swedish mutation using the method described in Citron et al., (1992) Nature 360:672-674. The transfected cell lines were designated as 293 751 SWE and CHO 751 SWE, and were plated in Corning 96 well plates at 2.5×10^4 or 1×10^4 cells per well respectively in Dulbecco's minimal essential media plus 10% fetal bovine serum. Following overnight incubation at 37° C. in an incubator equilibrated with 10% carbon dioxide (CO2), the media were removed and replaced with 200 μL per well of media containing a test compound. After a two hour pretreatment period, the media were again removed and replaced with fresh media containing the test compound and the cells were incubated for an additional two hours.
Test compound stocks were prepared in DMSO such that at the final concentration used in the treatment, the concentration of DMSO did no exceed 0.5%. After treatment, plates were centrifuged in a Beckman GPR at 1200 rpm for five minutes at room temperature to pellet cellular debris from the conditioned media. From each well, 100 μL of conditioned media were transferred into an ELISA plate precoated with antibody 266 against βAP-13-28 (Seubert et al., supra.) and stored at 4° C. overnight. An ELISA assay employing labeled antibody 6C6 (against βAP-1-16) was run the next day to measure the amount of Aβ produced.
Cytotoxic effects of the test compounds were measured by a modification of the method of Hansen et al., (1989) J. Immun. Meth. 119:203-210. To the cells remaining in the tissue culture plate, was added 25 μL of a 3, (4,5-dimethylthiazol-2-yl)2,5-diphenyltetrazolium bromide (MTT) stock solution (5 mg/mL) to a final concentration of […]. Cells were incubated at 37° C. for one hour, and cellular activity was stopped by the addition of an equal volume of MTT lysis buffer (20% w/v sodium dodecylsulfate in 50% DMF, pH 4.7). Complete extraction was achieved by overnight shaking at room temperature. The difference in the OD562 nm and the OD650 nm was measured in a Molecular Devices UVmax microplate reader as an indicator of the cellular viability.
The results of the Aβ ELISA were fit to a standard curve and expressed as ng/mL Aβ peptide. In order to normalize for cytotoxicity, these Aβ results were divided by the MTT results and expressed as a percentage of the results from a drug -free control.
The test compounds were assayed for Aβ production inhibition activity in cells at […] using the test. The results presented in Table 1 are the mean and standard deviation of at least six replicate assays. IC50 means the concentration of test compound in micromoles/liter required to inhibit Aβ production by 50%.
On the technique in general: In an ELISA, binding on a coated surface is turned into a signal by an enzyme label.
Take `CCCCc1ccc(COc2ccc(CN(O)C(=S)NCc3ccccc3)cc2)cc1` [Compound 62]: 5 µg/mL produced 17% inhibition.

On to `CCCCCCNC(=S)N(O)Cc1cccc(OCc2ccc(C(C)(C)C)cc2)c1` [Compound 50], for which testing at 5 µg/mL gave an inhibition of 25%.

On to `CCCCCCNC(=S)N(O)C(Cc1ccccc1)c1cccc(Oc2ccc(C(C)(C)C)cc2)c1` (stereo not drawn) [Compound 34], for which the inhibition (in general, how much of the control response was suppressed) at 5 µg/mL stood at 20%.

`CCCCCCNC(=S)N(O)Cc1ccc(OCc2cc(OC)cc(OC)c2)cc1` [Compound 61] showed an inhibition at 5 µg/mL of 28%.

The molecule `CC(C)(C)c1ccc(COc2cccc(CN(O)C(=S)NCc3ccc(Cl)c(Cl)c3)c2)cc1` [Compound 51] showed an inhibition at 5 µg/mL of 38%.

The test is the same for the next values; noted with them: 10 μg/ml, % of drug-free control, normalized to MTT.
Molecule `CCCCCCNC(=S)Nc1ccc(C(=O)c2ccccc2)c(O)c1CCC` [Compound 202] gave an inhibition at 10 µg/mL of 42%.

The molecule `CCCCCCNC(=S)N(O)Cc1cccc(OCc2ccc(C(=O)CC)c(O)c2CCC)c1` [Compound 70] displayed an inhibition at 10 µg/mL of 37%.

For `COc1ccc(CNC(=S)N(O)C(C)c2cccc(Oc3ccc(C(C)(C)C)cc3)c2)cc1OC` (stereo not drawn) [Compound 11], the inhibition at 10 µg/mL worked out at 31%.

`CCCCCCC(c1cccc(Oc2ccc(C(C)(C)C)cc2)c1)N(O)C(=S)NCc1ccccc1` (stereo not drawn) [Compound 36] had an inhibition at 10 µg/mL of 26%.

In the case of `COc1ccc(NC(=O)Nc2ccc(Cl)c(Cl)c2)c(OC)c1` [Compound 144], the inhibition at 10 µg/mL came out at 41%.

`Cc1cccc(CNC(=S)N(O)Cc2ccc(OCc3c(Cl)cccc3Cl)cc2)c1` [Compound 65] displayed an inhibition at 10 µg/mL of 7%.

Turning to `CC(C)(C)c1ccc(-c2ccc(CN(O)C(=S)NCc3ccccc3)cc2)cc1` [Compound 81], the inhibition at 10 µg/mL was determined as 20%.

Take `CC(C)(C)OC(=O)N1CCCCC1CNC(=S)Nc1ccc(Oc2ccc(C(C)(C)C)cc2)cc1` (stereo not drawn) [Compound 124]: the inhibition at 10 µg/mL was found to be 31%.

For the molecule `CSc1ccc(NC(=O)Nc2cccc(Cl)c2Cl)cc1` [Compound 158], at 10 µg/mL the inhibition was 51%.

Molecule `CNC(=O)N(C)c1nnc(Br)s1` [Compound 254] came in with an inhibition at 10 µg/mL of 11%.

For the molecule `Cc1cccc(CNC(=S)N(O)Cc2ccc(-c3ccc(C(C)(C)C)cc3)cc2)c1` [Compound 82], the inhibition at 10 µg/mL is 30%.

With `Cc1nnc(NC(=O)Nc2ccccc2F)s1` [Compound 249], the inhibition at 10 µg/mL worked out at 6%.

For `CC(c1cccc(Oc2ccc(C(C)(C)C)cc2)c1)N(O)C(=S)NC(c1ccccc1)c1ccccc1` (stereo not drawn) [Compound 14], the inhibition at 10 µg/mL was found to be 44%.

In turn, `O=C(Nc1ccccc1)Nc1nncs1` [Compound 255] had an inhibition at 10 µg/mL of 1%.

Regarding `CS(=O)(=O)c1ccc(NC(=O)Nc2ccc(Cl)cc2)cc1` [Compound 161], the inhibition at 10 µg/mL turned out to be 40%.

As for `CCCc1c(COc2ccc(CN(O)C(=S)NCc3ccccc3)cc2)ccc(C(C)=O)c1O` [Compound 67], the inhibition at 10 µg/mL was found to be 42%.

Still in this test, the particulars now being: 2 h pretreatment + 2 h incubation.
Regarding `COC(=O)c1sc2ccccc2c1C(=O)Nc1ccc(Cl)c(Cl)c1` [Compound 233], the IC50 (in general, the concentration that inhibits the measured activity by half) is 15.2 µM.

In the case of `COc1c(C(C)(C)C)cc(COc2cccc(CN(O)C(=S)NCc3ccccc3)c2)cc1C(C)(C)C` [Compound 72], the IC50 amounted to 8.1 µM.

Consider `CC(C)(C)c1cccc(Oc2cccc(NC(=S)Nc3ccc(Cl)c(C(F)(F)F)c3)c2)c1` [Compound 172], for which the IC50 is 3.8 µM.

In the case of `CC(C)(C)c1ccc(Oc2ccccc2CN(O)C(=S)NCc2ccccc2)cc1` [Compound 180], the IC50 was found to be 11.6 µM.

Consider `CC(C)(C)c1ccc(Oc2ccc(NC(=S)Nc3ccccc3)cc2)cc1` [Compound 114], for which the IC50 is 18.2 µM.

In the case of `CC(C)(C)c1cccc(Oc2ccc(NC(=S)NCc3cccc(C(F)(F)F)c3)cc2)c1` [Compound 178], the IC50 came to 8.6 µM.

Regarding `COc1ccc(CNC(=S)Nc2ccc(Oc3ccc(C(C)(C)C)cc3)cc2)cc1` [Compound 111], the IC50 came to 8.3 µM.

Consider `CC(c1cccc(Oc2ccc(C(C)(C)C)cc2)c1)N(O)C(=S)NCc1ccccc1` (stereo not drawn) [Compound 1], for which the IC50 turned out to be 11.2 µM.

Regarding `Cc1ccc(CNC(=S)N(O)C(C)c2cccc(Oc3ccc(C(C)(C)C)cc3)c2)cc1Cl` (stereo not drawn) [Compound 8], the IC50 came out at 9 µM.

For `CC(c1cccc(Oc2ccc(C(C)(C)C)cc2)c1)N(O)C(=S)NCc1cccc(F)c1` (stereo not drawn) [Compound 18], the IC50 is 18.3 µM.

Turning to `FC(F)(F)c1cccc(NC(=S)Nc2ccc(Cl)c(Cl)c2)c1` [Compound 147], the IC50 came out at 4.7 µM.

Turning to `CC(C)(C)c1ccc(Oc2ccc(NC(=S)NCCCCc3ccccc3)cc2)cc1` [Compound 118], the IC50 was 16.4 µM.

As for `CC(c1cccc(Oc2ccc(C(C)(C)C)cc2)c1)N(O)C(=S)NCc1ccc(Cl)cc1` (stereo not drawn) [Compound 3], the IC50 was 11.7 µM.

Regarding `COc1ccc(CNC(=S)N(O)C(C)c2cccc(Oc3ccc(C(C)(C)C)cc3)c2)cc1` (stereo not drawn) [Compound 10], the IC50 was more than 20 µM.

In the case of `CC(C)(C)c1ccc(Oc2cccc(NC(=S)NCc3ccccc3)c2)cc1` [Compound 186], the IC50 worked out at 9 µM.

Take `CCCCCCNC(=S)N(O)Cc1cccc(Oc2ccc(C(C)(C)C)cc2)c1` [Compound 27]: the IC50 was 9.4 µM.

In the case of `CC(C)(C)c1ccc(Oc2cccc(CN(O)C(=S)NCc3ccccc3)c2)cc1` [Compound 26], the IC50 is 3.4 µM.

For `CC(C)(C)c1ccc(Oc2ccc(NC(=S)NCc3ccccc3)cc2)cc1` [Compound 115], the IC50 is 16.4 µM.

For the molecule `CCCc1c(NC(=S)Nc2cccc(C(F)(F)F)c2)ccc(C(=O)c2ccccc2)c1O` [Compound 201], the 50% inhibitory concentration (IC50) was 20 µM.

As to `CSc1ccc(NC(=O)Nc2ccc(Cl)c(Cl)c2)cc1` [Compound 149], the IC50 worked out at 13.8 µM.

Turning to `CC(C)(C)c1ccc(Oc2ccc(NC(=S)NCCc3ccccc3)cc2)cc1` [Compound 116], the IC50 was determined as 19.8 µM.

Turning to `CSc1ccc(NC(=O)Nc2ccc(Cl)c(Cl)c2)cc1Br` [Compound 150], the IC50 is 5.2 µM.

Regarding `CC(C)(C)c1ccc(Sc2ccc(CN(O)C(=S)NCc3ccccc3)cc2)cc1` [Compound 88], the IC50 was determined as 7.5 µM.

Turning to `CCCC(c1cccc(Oc2ccc(C(C)(C)C)cc2)c1)N(O)C(=S)NCc1cccc(C)c1` (stereo not drawn) [Compound 32], the IC50 was determined as 9 µM.

Regarding `CC(C)(C)c1cccc(Oc2cccc(N(O)C(=S)Nc3ccc(Cl)c(C(F)(F)F)c3)c2)c1` [Compound 173], the IC50 came out at 2.8 µM.

Turning to `CCCCCCNC(=S)N(O)C(CC)c1cccc(Oc2ccc(C(C)(C)C)cc2)c1` (stereo not drawn) [Compound 24], the IC50 worked out at 8.8 µM.

In the case of `CC(C)(C)c1ccc(Oc2ccc(NC(=S)NCc3ccc(Br)cc3)cc2)cc1` [Compound 108], the IC50 stood at 8.9 µM.

`Cc1nnc(NC(=O)Nc2ccc(F)c(Cl)c2)s1` [Compound 250, 1-(5-methyl-1,3,4-thiadiazol-2-yl)-3-(4-fluoro-3-chlorophenyl)urea]: the IC50 was 9.8 µM.

Take `CCCCCCNC(=S)N(O)Cc1ccc(COc2ccc(C(C)(C)CC)cc2)cc1` [Compound 96]: the half-inhibitory concentration (IC50) stood at 24.8 µM.

With `O=C(Nc1ccc(Cl)c(Cl)c1)Nc1nnc(C(F)(F)F)s1` [Compound 236, 1-(5-trifluoromethyl-1,3,4-thiadiazol-2-yl)-3-(3,4-dichlorophenyl)urea], the IC50 stood at 4.2 µM.

In the case of `CC(C)(C)c1ccc(Oc2ccc(NC(=S)NCc3cccc(Cl)c3)cc2)cc1` [Compound 105], the 50% inhibitory concentration (IC50) is 9.4 µM.

Consider `CSc1ccc(NC(=O)Nc2ccc(Cl)c(Cl)c2)cc1` [Compound 154], for which the IC50 came to 8.6 µM.

`O=C(Nc1ccc(Cl)c(Cl)c1)Nc1cccc2ncccc12` [Compound 136]: the IC50 amounted to 17.8 µM.

`CC(C)(C)c1ccc(Oc2ccc(NC(=S)NCc3nnc(C(F)(F)F)s3)cc2)cc1` [Compound 134]: the IC50 is 10.2 µM.

On to `CC(C)(C)c1ccc(Oc2ccc(NC(=S)Nc3cccc(C(F)(F)F)c3)cc2)cc1` [Compound 175], for which the 50% inhibitory concentration (IC50) came to 7.3 µM.

As to `CCCc1cc(C(C)(C)C)ccc1Oc1ccc(NC(=S)Nc2cccc(C(F)(F)F)c2)cc1` [Compound 195], the IC50 is 11 µM.

Turning to `CC(C)(C)c1ccc(Oc2ccc(NC(=S)NCc3ccc(F)c(Cl)c3)cc2)cc1` [Compound 131], the IC50 came out at 5 µM.

Turning to `COc1cccc(CNC(=S)Nc2ccc(Oc3ccc(C(C)(C)C)cc3)cc2)c1` [Compound 110], the IC50 was determined as 21.2 µM.

As for `CC(C)(C)c1ccc(Oc2ccccc2N(O)C(=S)Nc2ccc(Cl)c(C(F)(F)F)c2)cc1` [Compound 171], the IC50 was 10.8 µM.

The values above are taken from patent publication US5814646A, “Inhibitors of amyloid beta-protein production” (Eli Lilly and Company, priority 1995, dated 1998).
